The test system of assay [1] is Beet Armyworm (Spodoptera exigua) ("BAW"), second instar larvae. As to the kind of experiment: Bioassay on beet armyworm (BAW), 128-well diet tray assay. In kind it is in vivo. To be noted: for pest or weed control at 50 µg/cm2: Spodoptera exigua, read-out: BAW (Biological Results, rating); for BAW (Biological Results, rating): Beet Armyworm (Spodoptera exigua), C = Not Tested. The gist of the method: (§1)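 Sealed trays, 25° C., 14:10 light:dark, 5–7 d. Per-well % mortality recorded, mean of eight wells reported.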

Assay [2] has as its system Cabbage Looper (Trichoplusia ni) ("CL"), second instar larvae. As to the kind of experiment: Bioassay on cabbage looper (CL), 128-well diet tray assay. Format: in vivo. To be noted: for pest or weed control at 50 µg/cm2: Trichoplusia ni, read-out: CL (Biological Results, rating); for CL (Biological Results, rating): Cabbage Looper (Trichoplusia ni), C = Not Tested. In short, it runs like this:
as §1

17 compounds from patent publication US20230077362A1 (CORTEVA AGRISCIENCE LLC, priority 2019, published 2023) can be followed below.

As to `Cc1ccc(N(C)C)c(N2C(=O)CS/C2=N\C(=O)Nc2ccc(-c3ncn(-c4ccc(OC(F)(F)F)cc4)n3)cc2)c1` [Compound J322, (Z)-1-(3-(2-(dimethylamino)-5-methylphenyl)-4-oxothiazolidin-2-ylidene)-3-(4-(1-(4-(trifluoromethoxy)phenyl)-1H-1,2,4-triazol-3-yl)phenyl)urea], the pest or weed control at 50 µg/cm2 in assay [1] and in assay [2] was 50 to 100% in each case.
As for `Cc1ccc(C(C)C)c(N2C(=O)CS/C2=N\C(=O)Nc2ccc(-c3ncn(-c4cccc(C(F)(F)F)c4)n3)cc2)c1` [Compound J323, (Z)-1-(3-(2-isopropyl-5-methylphenyl)-4-oxothiazolidin-2-ylidene)-3-(4-(1-(3-(trifluoromethyl)phenyl)-1H-1,2,4-triazol-3-yl)phenyl)urea], the pest or weed control at 50 µg/cm2 in assay [1] and in assay [2] was 50 to 100% throughout.
Take `CC(C)c1ccc(N(C)C)cc1N1C(=O)CS/C1=N\C(=O)Nc1ccc(-c2ncn(-c3cccc(OC(F)(F)F)c3)n2)cc1` [Compound J329, (Z)-1-(3-(5-(Dimethylamino)-2-isopropylphenyl)-4-oxothiazolidin-2-ylidene)-3-(4-(1-(3-(trifluoromethoxy)phenyl)-1H-1,2,4-triazol-3-yl)phenyl)urea]: the pest or weed control at 50 µg/cm2 in assay [1] and in assay [2] was 50 to 100% in each case.
With `Cc1ccc(COCC(F)(F)F)c(N2C(=O)CS/C2=N\C(=O)Nc2ccc(-c3ncn(-c4ccc(OC(F)(F)F)cc4)n3)cc2)c1` [Compound J331, (Z)-1-(3-(5-Methyl-2-((2,2,2-trifluoroethoxy)methyl)phenyl)-4-oxothiazolidin-2-ylidene)-3-(4-(1-(4-(trifluoromethoxy)phenyl)-1H-1,2,4-triazol-3-yl)phenyl)urea], the pest or weed control at 50 µg/cm2 in assay [1] and in assay [2] was 50 to 100% in each case.
For `Cc1ccc(COCC(F)(F)F)c(N2C(=O)CS/C2=N\C(=O)Nc2ccc(-c3ncn(-c4ccc(C(F)(F)F)cc4)n3)cc2)c1` [Compound J332, (Z)-1-(3-(5-Methyl-2-((2,2,2-trifluoroethoxy)methyl)phenyl)-4-oxothiazolidin-2-ylidene)-3-(4-(1-(4-(trifluoromethyl)phenyl)-1H-1,2,4-triazol-3-yl)phenyl)urea], the pest or weed control at 50 µg/cm2 in assay [1] and in assay [2] was 50 to 100% each time.
Turning to `Cc1ccc(OCCC(F)(F)F)c(N2C(=O)CS/C2=N\C(=O)Nc2ccc(-c3ncn(-c4ccc(SC(F)(F)F)cc4)n3)cc2F)c1` [Compound J333, (Z)-1-(2-Fluoro-4-(1-(4-((trifluoromethyl)thio)phenyl)-1H-1,2,4-triazol-3-yl)phenyl)-3-(3-(5-methyl-2-(3,3,3-trifluoropropoxy)phenyl)-4-oxothiazolidin-2-ylidene)urea], the pest or weed control at 50 µg/cm2 in assay [1] and in assay [2] was 50 to 100% throughout.
Consider `CC(C)c1ccc(N(C)C)cc1N1C(=O)CS/C1=N\C(=O)Nc1ccc(-c2ncn(-c3ccc(SC(F)(F)F)cc3)n2)cc1F` [Compound J334, (Z)-1-(3-(5-(Dimethylamino)-2-isopropylphenyl)-4-oxothiazolidin-2-ylidene)-3-(2-fluoro-4-(1-(4-((trifluoromethyl)thio)phenyl)-1H-1,2,4-triazol-3-yl)phenyl)urea], for which the pest or weed control at 50 µg/cm2 in assay [1] and in assay [2] was 50 to 100% in each case.
With `CC(C)c1ccc(N(C)C)cc1N1C(=O)CS/C1=N\C(=O)Nc1ccc(-c2ncn(-c3ccc(C(F)(F)F)cn3)n2)cc1F` [Compound J336, (Z)-1-(3-(5-(Dimethylamino)-2-isopropylphenyl)-4-oxothiazolidin-2-ylidene)-3-(2-fluoro-4-(1-(5-(trifluoromethyl)pyridin-2-yl)-1H-1,2,4-triazol-3-yl)phenyl)urea], the pest or weed control at 50 µg/cm2 in assay [1] and in assay [2] was 50 to 100% each time.
For the compound `Cc1ccc(C(C)C)c(N2C(=O)CS/C2=N\C(=O)Nc2ccc(-c3ncn(-c4ccc(C(F)(F)F)cn4)n3)cc2)c1` [Compound J337, (Z)-1-(3-(2-Isopropyl-5-methylphenyl)-4-oxothiazolidin-2-ylidene)-3-(4-(1-(5-(trifluoromethyl)pyridin-2-yl)-1H-1,2,4-triazol-3-yl)phenyl)urea], the pest or weed control at 50 µg/cm2 in assay [1] and in assay [2] was 50 to 100% each time.
Regarding `COC(C)c1ccc(C)cc1N1C(=O)CS/C1=N\C(=O)Nc1ccc(-c2ncn(-c3ccc(C(F)(F)F)cn3)n2)cc1` (stereo not shown) [Compound J338, (Z)-1-(3-(2-(1-Methoxyethyl)-5-methylphenyl)-4-oxothiazolidin-2-ylidene)-3-(4-(1-(5-(trifluoromethyl)pyridin-2-yl)-1H-1,2,4-triazol-3-yl)phenyl)urea], the pest or weed control at 50 µg/cm2 in assay [1] and in assay [2] was 50 to 100% in each case.
For the compound `CC(C)c1ccc(N(C)C)cc1N1C(=O)CS/C1=N\C(=O)Nc1ccc(-c2ncn(-c3ccc(C(F)(F)F)cn3)n2)cc1` [Compound J339], the “BAW (Biological Results, rating)” value in assay [1] is “A (50-100)”. For the same compound, the “CL (Biological Results, rating)” value in assay [2] was “A (50-100)”.
Regarding `COC(C)c1ccc(C)cc1N1C(=O)CS/C1=N\C(=O)Nc1ccc(-c2ncn(-c3ccc(OCC#N)cc3)n2)cc1F` (stereo not shown) [Compound J340, (Z)-1-(4-(1-(4-(Cyanomethoxy)phenyl)-1H-1,2,4-triazol-3-yl)-2-fluorophenyl)-3-(3-(2-(1-methoxyethyl)-5-methylphenyl)-4-oxothiazolidin-2-ylidene)urea], the pest or weed control at 50 µg/cm2 in assay [1] and in assay [2] was 50 to 100% each time.
Regarding `COC(C)c1ccc(C)cc1N1C(=O)CS/C1=N\C(=O)Nc1ccc(-c2ncn(-c3ccc(C(F)F)cn3)n2)cc1F` (stereo not shown) [Compound J341], in assay [1], the “BAW (Biological Results, rating)” value was “A (50-100)”. In assay [2], the “CL (Biological Results, rating)” value is on record as “A (50-100)”.
For the compound `CC(C)c1ccc(N(C)C)cc1N1C(=O)CS/C1=N\C(=O)Nc1ccc(-c2ncn(-c3ccc(OCC#N)cc3)n2)cc1F` [Compound J342, (Z)-1-(4-(1-(4-(Cyanomethoxy)phenyl)-1H-1,2,4-triazol-3-yl)-2-fluorophenyl)-3-(3-(5-(dimethylamino)-2-isopropylphenyl)-4-oxothiazolidin-2-ylidene)urea], the pest or weed control at 50 µg/cm2 in assay [1] and in assay [2] was 50 to 100% in each case.
Regarding `Cc1ccc(COCC(F)(F)F)c(N2C(=O)CS/C2=N\C(=O)Nc2ccc(-c3ncn(-c4ccc(OCC#N)cc4)n3)cc2F)c1` [Compound J343, (Z)-1-(4-(1-(4-(Cyanomethoxy)phenyl)-1H-1,2,4-triazol-3-yl)-2-fluorophenyl)-3-(3-(5-methyl-2-((2,2,2-trifluoroethoxy)methyl)phenyl)-4-oxothiazolidin-2-ylidene)urea], the pest or weed control at 50 µg/cm2 in assay [1] and in assay [2] was 50 to 100% in each case.
For the compound `COCc1ccc(C)cc1N1C(=O)CS/C1=N\C(=O)Nc1ccc(-c2ncn(-c3ccc(C(F)F)cn3)n2)cc1F` [Compound J345], the “BAW (Biological Results, rating)” value in assay [1] was “A (50-100)”. Also, the “CL (Biological Results, rating)” value in assay [2] is recorded as “A (50-100)”.
For the compound `Cc1ccc(COCC(F)(F)F)c(N2C(=O)CS/C2=N\C(=O)Nc2ccc(-c3ncn(-c4ccc(C(F)F)cn4)n3)cc2F)c1` [Compound J346], in assay [1], the “BAW (Biological Results, rating)” value is “A (50-100)”. Moreover, the “CL (Biological Results, rating)” value in assay [2] was “A (50-100)”.
